Experimental data from patent US20170368052A1, “CRYSTAL FORMS OF APOMORPHINE AND USES THEREOF” (NeuroDerm, Ltd., priority 2014, published 2017).
“Also recorded” adds a separate entry of the source. Counter-ions that a name gives are not always drawn.

Tests used:
[1] = cited from earlier work; for pKa: amine bases used for salt release in IPA; for Literature pKa: bases of the base screen in n-BuOH
[2] = Stability study of the isolated solid to air and light (HPLC profile); type: physicochemical
Procedure: The 3-amino-1-propanol mediated salt release of apomorphine was scaled to 10 g in IPA (10 vol), and in order to aid the mobility of the reaction, the addition of the 3-amino-1-propanol was performed at 40-45° C. […] The slurry was cooled and aged over 16 h at 18 to 23° C.
Samples of solids isolated from an IPA recrystallization of the free base, salt released via the 3-amino-1-propanol route were monitored by their color change and their HPLC profile. The HPLC profiles are described in Table 8.

[3] = Stability of the reaction mixture at 40-45° C. (HPLC profile); type: physicochemical; conditions: 40° C.
Procedure: The effect of adding ascorbic acid-6-palmitate on stability of the reaction mixture and the isolated solid was determined in a larger scale reaction (A0513-68). On a 10 g scale, ascorbic acid-6-palmitate (0.01 wt) was added to a flask with the apomorphine hydrochloride salt and IPA (10 vol). 3-amino-1-propanol (2.5 ml, 1.1 eq, 0.25 vol) was added at 40-45° C., and a slurry was present throughout. The slurry was stirred at 40-45° C. for 2 h; at this point 10% of the reaction mixture was removed for an extended stability study at 40-45° C. The remainder of the reaction was cooled and aged over 16 h to 18-23° C. The solid was filtered and washed with IPA (2×3 vol) and resulted a white solid (liquor was pale yellow). The solid was dried under a flow of nitrogen for 30 min. The yield was 7.03 g (79.8%, corrected for 18.3% w/w IPA, approximately 1 eq), 100% area by HPLC (Note: 10% of the reaction mixture was removed for the stability study, therefore this yield is at the expected approximately 90% level, and the combined mother liquor and washes contained 7.6% of theoretical yield by assay). In this material the ascorbic acid-6-palmitate and 3-amino-1-propanol in the product were below detectable levels by ^1H NMR analysis.
Stability of the reaction mixture was compared with and without ascorbic acid-6-palmitate. Each reaction was held at 40-45° C. and both the color and the HPLC profile monitored. HPLC purity profiles are shown on Table 6.

[4] = Stability of the reaction mixture at reflux in IPA with/without ascorbic acid-6-palmitate (HPLC); type: physicochemical
Procedure: In this case, the base was added under reflux and the procedure compared with and without ascorbic acid-6-palmitate as an antioxidant (Table 7).

[5] = Vacuum oven drying, retained solvent content; type: physicochemical; conditions: for Solvent content post-drying: vacuum oven, 45° C. for 24 h
Procedure: Four samples (B, G, H and O) were transferred to a vacuum oven and dried at 45° C. for 24 h.

[6] = Antioxidant additives: stability of apomorphine free base in MeOH solution (HPLC); type: physicochemical; conditions: MeOH (10 vol)
Procedure: However, the free base in solution is susceptible to aerial oxidation.
The vial was flushed with air, sealed, and stirred. The reactions were compared with a control reaction having no antioxidant. • A—in MeOH (10 vol) (control reaction) • B—ascorbic acid-6-palmitate (10 wt %) in MeOH (10 vol) • C—BHT (10 wt %) in MeOH (10 vol)
Samples were analyzed by HPLC. […] The HPLC profile just after addition of the antioxidant was of similar purity for each sample. After 24 h, sample B had precipitated a small amount of solid in a pale green solution. […] Key impurities elute early in the HPLC profile at RRT 0.15 and 0.18. In the samples without ascorbic acid-6-palmitate these impurities were >1.5% area.

[7] = Solubility of apomorphine free base and HCl salt in solvents; type: physicochemical
Procedure: This material was used in 50 mg portions (A0513-06).
The free base is fully soluble in 5 vol of either MeOH, EtOH, or n-BuOH. […] The free base precipitated as an oil from most solvents, particularly after heating. An apparently crystalline solid formed following dissolution of the free base and cooling in 1,4-dioxane.

[8] = Stability to air (color visually monitored); type: physicochemical; conditions: visual
Source text: Samples of free base isolated from water, IPA, and MeOAc were retained open to air and the color visually monitored (FIG. 2). Over the course of 2 days, the products isolated from organic solvents discolored to green solids. […]

[9] = isolated stability to air and light (2 days)
[10] = isolated stability to air and light (5 days)
[11] = isolated stability to air and light (17 days)
[12] = from reaction containing asc, stability of solid in air and light (5 days)
[13] = from reaction containing asc, stability of solid in air and light (14 days)
[14] = isolated from reaction containing asc (1 day)
[15] = ascorbic acid-6-palmitate, 24 h
[16] = ascorbic acid-6-palmitate, 48 h
[17] = ascorbic acid-6-palmitate, 120 h
[18] = no ascorbic acid-6-palmitate, solution at reflux
[19] = no ascorbic acid-6-palmitate, liquors
[20] = no ascorbic acid-6-palmitate, isolated solid
[21] = with ascorbic acid-6-palmitate, liquors
[22] = with ascorbic acid-6-palmitate, isolated solid

NCCCO [3-amino-1-propanol]
pKa [1]: 10.23

CC(C)O.CN1CCc2cccc3c2[C@H]1Cc1ccc(O)c(O)c1-3 [A0513-64-05, apomorphine free base mono-IPA solvate]
% area: RRT 1.00 ([2]; isolated solid, no ascorbic acid-6-palmitate, output): 100.00 % area | % area: RRT 1.00 [2, 9]: 99.98 % area | % area: RRT 1.71 [2, 9]: 0.02 % area | % area: RRT 1.00 [2, 10]: 99.95 % area | % area: RRT 1.71 [2, 10]: 0.03 % area | % area: RRT 1.76 [2, 10]: 0.02 % area | % area: RRT 0.41 [2, 11]: 0.03 % area | % area: RRT 1.00 [2, 11]: 99.92 % area | % area: RRT 1.71 [2, 11]: 0.02 % area | % area: RRT 1.76 [2, 11]: 0.03 % area

CC(C)O.CN1CCc2cccc3c2[C@H]1Cc1ccc(O)c(O)c1-3 [A0513-68-01, apomorphine free base mono-IPA solvate]
% area: RRT 1.00 [2, 12]: 99.97 % area | % area: RRT 1.71 [2, 12]: 0.03 % area | % area: RRT 0.41 [2, 13]: 0.01 % area | % area: RRT 1.00 [2, 13]: 99.92 % area | % area: RRT 1.71 [2, 13]: 0.03 % area | % area: RRT 1.76 [2, 13]: 0.02 % area | % area: RRT 2.02 [2, 13]: 0.02 % area | % area: RRT 1.00 [2, 14]: 99.98 % area | % area: RRT 1.71 [2, 14]: 0.02 % area

CN1CCc2cccc3c2C1Cc1ccc(O)c(O)c1-3 (stereo not drawn) [A0513-68A-03]
% area: RRT 1.00 [3, 15]: 99.93 % area | % area: RRT 1.71 [3, 15]: 0.05 % area | % area: RRT 1.76 [3, 15]: 0.03 % area | % area: RRT 1.00 [3, 16]: 99.96 % area | % area: RRT 1.71 [3, 16]: 0.04 % area | % area: RRT 1.00 [3, 17]: 99.86 % area | % area: RRT 1.25 [3, 17]: 0.04 % area | % area: RRT 1.71 [3, 17]: 0.06 % area | % area: RRT 1.76 [3, 17]: 0.04 % area

CN1CCc2cccc3c2C1Cc1ccc(O)c(O)c1-3 (stereo not drawn) [A0513-72-01]
% area: RRT 0.74 ([3]; poor purging, 24 h): 0.22 % area | % area: RRT 1.00 ([3]; poor purging, 24 h): 98.18 % area | % area: RRT 1.09 ([3]; poor purging, 24 h): 0.13 % area | % area: RRT 1.22 ([3]; poor purging, 24 h): 0.44 % area | % area: RRT 1.25 ([3]; poor purging, 24 h): 0.10 % area | % area: RRT 1.37 ([3]; poor purging, 24 h): 0.15 % area | % area: RRT 1.50 ([3]; poor purging, 24 h): 0.07 % area | % area: RRT 0.74 ([3]; poor purging, 48 h): 0.10 % area | % area: RRT 1.00 ([3]; poor purging, 48 h): 94.66 % area | % area: RRT 1.09 ([3]; poor purging, 48 h): 2.32 % area | % area: RRT 1.22 ([3]; poor purging, 48 h): 0.42 % area | % area: RRT 1.25 ([3]; poor purging, 48 h): 1.46 % area | % area: RRT 1.37 ([3]; poor purging, 48 h): 0.16 % area | % area: RRT 1.50 ([3]; poor purging, 48 h): 0.10 % area

CN1CCc2cccc3c2C1Cc1ccc(O)c(O)c1-3 (stereo not drawn) [A0513-76-01]
% area: RRT 1.00 ([3]; effective purging, 24 h): 99.90 % area | % area: RRT 1.71 ([3]; effective purging, 24 h): 0.06 % area | % area: RRT 1.76 ([3]; effective purging, 24 h): 0.04 % area | % area: RRT 1.00 ([3]; effective purging, 96 h): 99.90 % area | % area: RRT 1.71 ([3]; effective purging, 96 h): 0.06 % area | % area: RRT 1.76 ([3]; effective purging, 96 h): 0.04 % area

CN1CCc2cccc3c2C1Cc1ccc(O)c(O)c1-3 (stereo not drawn) [A0513-94-01]
% area: RRT 1.00 [4, 18]: 99.56 % area | % area: RRT 1.09 [4, 18]: 0.05 % area | % area: RRT 1.25 [4, 18]: 0.06 % area | % area: RRT 1.71 [4, 18]: 0.06 % area | % area: RRT 1.76 [4, 18]: 0.04 % area

CN1CCc2cccc3c2C1Cc1ccc(O)c(O)c1-3 (stereo not drawn) [A0513-94-02]
% area: RRT 1.00 [4, 19]: 92.99 % area | % area: RRT 1.09 [4, 19]: 1.79 % area | % area: RRT 1.25 [4, 19]: 0.57 % area | % area: RRT 1.29 [4, 19]: 1.20 % area | % area: RRT 1.50 [4, 19]: 0.22 % area | % area: RRT 1.71 [4, 19]: 0.34 % area | % area: RRT 1.76 [4, 19]: 0.43 % area

CC(C)O.CN1CCc2cccc3c2C1Cc1ccc(O)c(O)c1-3 (stereo not drawn) [A0513-94-03]
% area: RRT 1.00 [4, 20]: 99.81 % area | % area: RRT 1.25 [4, 20]: 0.13 % area | % area: RRT 1.71 [4, 20]: 0.02 % area

CN1CCc2cccc3c2C1Cc1ccc(O)c(O)c1-3 (stereo not drawn) [A0513-98-02]
% area: RRT 1.00 [4, 21]: 95.62 % area | % area: RRT 1.09 [4, 21]: 1.25 % area | % area: RRT 1.25 [4, 21]: 0.19 % area | % area: RRT 1.29 [4, 21]: 0.61 % area | % area: RRT 1.50 [4, 21]: 0.12 % area | % area: RRT 1.71 [4, 21]: 0.45 % area | % area: RRT 1.76 [4, 21]: 0.34 % area

CC(C)O.CN1CCc2cccc3c2C1Cc1ccc(O)c(O)c1-3 (stereo not drawn) [A0513-98-03]
% area: RRT 1.00 [4, 22]: 99.93 % area | % area: RRT 1.25 [4, 22]: 0.07 % area

C[N+](C)(C)CC(=O)O [Betaine]
Literature pKa [1]: 12.16

CN1CCc2cccc3c2[C@H]1Cc1ccc(O)c(O)c1-3 [H]
Solvent content post-drying [5]: 20.0 % w/w

CN(C1CCCCC1)C1CCCCC1 [N-methyl-dicyclohexyl amine]
pKa [1]: 9.25

CN1CCc2cccc3c2[C@H]1Cc1ccc(O)c(O)c1-3 [O]
Solvent content post-drying [5]: 7.8 % w/w

CN1CCc2cccc3c2[C@H]1Cc1ccc(O)c(O)c1-3 [Sample B]
Solvent content post-drying [5]: 23.4 % w/w | HPLC purity compared between samples ([6]; after 24 h): higher than for either A or C | HPLC purity compared between samples ([6]; after 72 h): highest purity

CN1CCc2cccc3c2[C@H]1Cc1ccc(O)c(O)c1-3 [Sample G]
IPA content remaining ([5]; 75° C. for 17 h under vacuum): 17.4 % w/w

CC1(C)CCCC(C)(C)N1 [TMP, 2,2,6,6-tetramethylpiperidine]
pKa [1]: 11.07 | Literature pKa [1]: 11.07

CN1CCc2cccc3c2[C@H]1Cc1ccc(O)c(O)c1-3 [apomorphine hydrochloride]
Solubility in methanol ([7]; listed as HCl salt, hydrochloride): the only solvent that dissolved any significant amount; also recorded: moderate solubility | Solubility in n-BuOH ([7]; up to 20 vol at reflux): did not dissolve

CN1CCc2cccc3c2[C@H]1Cc1ccc(O)c(O)c1-3 [apomorphine]
Solubility in EtOH ([7]; 5 vol, 50 mg portions): fully soluble | Solubility in MeOH ([7]; 5 vol, 50 mg portions): fully soluble | Solubility in n-BuOH ([7]; 5 vol, 50 mg portions): fully soluble | Color of solid retained open to air ([8]; over 2 days): did not appear to change | Time over which the solid gradually discolored open to air [8]: about 4 weeks
